Our source for the IC50 values is patent US20070004660A1, “Synergistic Modulation of Flt3 Kinase Using Alkylquinolines and Alkylquinazolines” (priority 2005, published 2007).

Assay [1] concerns the target T1, isolated kinase domain of the human FLT3 receptor (a.a. 571-993) (Homo sapiens, UniProt P36888).
T1 construct: human FLT3 receptor (a.a. 571-993)
T1 sequence (P36888 571-993): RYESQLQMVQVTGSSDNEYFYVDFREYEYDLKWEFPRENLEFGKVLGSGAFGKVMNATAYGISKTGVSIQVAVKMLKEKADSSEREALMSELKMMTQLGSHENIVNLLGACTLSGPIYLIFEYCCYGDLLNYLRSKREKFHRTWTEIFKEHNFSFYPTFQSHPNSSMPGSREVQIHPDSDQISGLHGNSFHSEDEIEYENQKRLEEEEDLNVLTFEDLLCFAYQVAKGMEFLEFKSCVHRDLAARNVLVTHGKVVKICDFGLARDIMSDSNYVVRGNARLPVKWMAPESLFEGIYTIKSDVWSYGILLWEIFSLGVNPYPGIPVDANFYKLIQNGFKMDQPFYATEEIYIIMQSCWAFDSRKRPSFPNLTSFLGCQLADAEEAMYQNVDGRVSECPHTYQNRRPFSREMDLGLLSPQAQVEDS
Briefly: FLT3 fluorescence polarization kinase assay. The class given is biochemical. The settings on record: 150 uM ATP; uncertainty ±10%. On the procedure:
The FLT3 FP assay utilizes the fluorescein-labeled phosphopeptide and the anti-phosphotyrosine antibody included in the Panvera Phospho-Tyrosine Kinase Kit (Green) supplied by Invitrogen. When FLT3 phosphorylates polyGlu4Tyr, the fluorescein-labeled phosphopeptide is displaced from the anti-phosphotyrosine antibody by the phosphorylated poly Glu4Tyr, thus decreasing the FP value. The FLT3 kinase reaction is incubated at room temperature for 30 minutes under the following conditions: 10 nM FLT3 571-993, 20 ug/mL poly Glu4Tyr, 150 uM ATP, 5 mM MgCl2, 1% compound in DMSO. The kinase reaction is stopped with the addition of EDTA. The fluorescein-labeled phosphopeptide and the anti-phosphotyrosine antibody are added and incubated for 30 minutes at room temperature.
All data points are an average of triplicate samples. Inhibition and IC50 data analysis was done with GraphPad Prism using a non-linear regression fit with a multiparamater, sigmoidal dose-response (variable slope) equation.
A general note: Fluorescence polarisation rises when a labelled molecule tumbles more slowly, as on binding a larger partner.

The next assay relates to MV4-11 cells. Kind of assay: Inhibition of MV4-11 cell proliferation (CellTiterGlo, 72 h). The class given is cell-based. To be noted: Homo sapiens; 72 h growth inhibition; uncertainty ±20%. On the procedure: MV4-11 cells cannot grow and survive without active FLT3ITD.
To measure proliferation inhibition by test compounds, the luciferase based CellTiterGlo reagent (Promega), which quantifies total cell number based on total cellular ATP concentration, was used. Cells are plated at 10,000 cells per well in 100 ul of in RPMI media containing penn/strep, 10% FBS and 1 ng/ml GM-CSF or 1 ng/ml IL-3 for MV4-11 and Baf3 cells respectively.
Compound dilutions or 0.1% DMSO (vehicle control) are added to cells and the cells are allowed to grow for 72 hours at standard cell growth conditions (37° C., 5% CO2). For activity measurements in MV4-11 cells grown in 50% plasma, cells were plated at 10,000 cells per well in a 1:1 mixture of growth media and human plasma (final volume of 100 μL). To measure total cell growth an equal volume of CellTiterGlo reagent was added to each well, according to the manufacturer's instructions, and luminescence was quantified. Total cell growth was quantified as the difference in luminescent counts (relative light units, RLU) of cell number at Day 0 compared to total cell number at Day 3 (72 hours of growth and/or compound treatment). One hundred percent inhibition of growth is defined as an RLU equivalent to the Day 0 reading. Zero percent inhibition was defined as the RLU signal for the DMSO vehicle control at Day 3 of growth. All data points are an average of triplicate samples. […] Inhibition and IC50 data analysis was done with GraphPad Prism using a non-linear regression fit with a multiparamater, sigmoidal dose-response (variable slope) equation.
MV4-11 cells express the FLT3 internal tandem duplication mutation, and thus are entirely dependent upon FLT3 activity for growth. […] In contrast, the Baf3 cell proliferation is driven by the cytokine IL-3 and thus are used as a non-specific toxicity control for test compounds.
On the technique in general: ATP-based viability assays read luminescence as a measure of living cells.

Structures are written as SMILES. Where only a bound is given, the exact number is not on record here.

In general, IC50 refers to the concentration needed to halve the response being measured. Read a low IC50 as higher potency. In the case of `CS(=O)(=O)N1CC[C@@H](Oc2ccc3c(C4CCN(C(=O)Nc5ccc(N6CCCC6)cc5)CC4)ncnc3c2)C1` [Compound 177, (R)-4-[7-(1-Methanesulfonyl-pyrrolidin-3-yloxy)-quinazolin-4-yl]-piperidine-1-carboxylic acid (4-pyrrolidin-1-yl-phenyl)-amide], the IC50 in assay [1] amounted to 1 nM; in the assay on MV4-11 cells, 265 nM.

Consider `CN1CCN(c2ccc3ncnc(C4CCN(C(=O)Nc5ccc(N6CCOCC6)cc5)CC4)c3c2)CC1` [Compound 198, 4-[6-(4-Methyl-piperazin-1-yl)-quinazolin-4-yl]-piperidine-1-carboxylic acid (4-morpholin-4-yl-phenyl)-amide], for which the figures for the IC50 (in assay [1]; with MV4-11 cells) were 10200 nM and 227 nM, respectively.

With `COCC(=O)N1CCN(c2ccc3c(C4CCN(C(=O)Nc5ccc(N6CCCC6)cc5)CC4)ncnc3c2)CC1` [Compound 200], the IC50 came to 21 nM in assay [1] and 6 nM in the assay on MV4-11 cells.

Take `COc1ccc2ncnc(C3CCN(C(=O)Nc4ccc(OC(C)C)cc4)CC3)c2c1` [Compound 203, 4-(6-Methoxy-quinazolin-4-yl)-piperidine-1-carboxylic acid (4-isopropoxy-phenyl)-amide]: the IC50 turned out to be 297 nM in assay [1] and 149 nM in the assay with MV4-11 cells.

`CC(C)Oc1ccc(NC(=O)N2CCC(c3ncnc4cc(OCCCc5nnn[nH]5)ccc34)CC2)cc1` [Compound 204, 4-{7-[3-(1H-Tetrazol-5-yl)-propoxy]-quinazolin-4-yl}-piperidine-1-carboxylic acid (4-isopropoxy-phenyl)-amide]: the IC50 is 306 nM in assay [1] and greater than 1000 nM with MV4-11 cells.

For the molecule `COc1cc2c(C3CCN(C(=O)Nc4ccc(N5CCCC5)cc4)CC3)ncnc2cc1OCCCN1CCN(C)CC1` [Compound 208, 4-{6-Methoxy-7-[3-(4-methyl-piperazin-1-yl)-propoxy]-quinazolin-4-yl}-piperidine-1-carboxylic acid (4-pyrrolidin-1-yl-phenyl)-amide], the IC50 in assay [1] stood at 2 nM; in the assay with MV4-11 cells it was 3 nM.

On to `CC(C)c1ccc(NC(=O)N2CCC(c3ccnc4ccccc34)CC2)cc1` [Example 5, 4-Quinolin-4-yl-piperidine-1-carboxylic acid (4-isopropyl-phenyl)-amide], for which the IC50 in assay [1] was determined as 94 nM; with MV4-11 cells, 290 nM.

For `COc1cc2ncnc(C3CCN(C(=O)Nc4ccc(N5CCN(C)CC5)cc4)CC3)c2cc1OC` [Example 20, 4-(6,7-Dimethoxy-quinazolin-4-yl)-piperidine-1-carboxylic acid [4-(4-methyl-piperazin-1-yl-phenyl)]-amide], the half-maximal inhibitory concentration (IC50) in assay [1] is 6600 nM; in the assay with MV4-11 cells, 1100 nM.

As for `COc1cc2ncnc(C3CCN(C(=O)Nc4ccc5c(c4)CCO5)CC3)c2cc1OC` [Example 27, 4-(6,7-Dimethoxy-quinazolin-4-yl)-piperidine-1-carboxylic acid (2,3-dihydro-benzofuran-5-yl)-amide], the IC50 worked out at 2000 nM in assay [1] and 4100 nM with MV4-11 cells.

For `COc1ccc(NC(=O)N2CCC(c3ncnc4cc(OC)c(OC)cc34)CC2)cc1` [Example 41, 4-(6,7-Dimethoxy-quinazolin-4-yl)-piperidine-1-carboxylic acid (4-methoxy-phenyl)-amide], the IC50 in assay [1] is 730 nM; in the assay on MV4-11 cells it was 3300 nM.

For `COc1cc2ncnc(C3CCN(C(=O)NC4CCCCC4)CC3)c2cc1OC` [Example 42, 4-(6,7-Dimethoxy-quinazolin-4-yl)-piperidine-1-carboxylic acid cyclohexylamide], the IC50 (in assay [1]; in the assay on MV4-11 cells) was greater than 10000 nM each time.

`COc1cc2ncnc(C3CCN(C(=O)Nc4ccc(C(F)(F)F)cc4)CC3)c2cc1OC` [Example 46, 4-(6,7-Dimethoxy-quinazolin-4-yl)-piperidine-1-carboxylic acid (4-trifluoromethyl-phenyl)-amide]: the values for the IC50 (in assay [1]; in the assay with MV4-11 cells) were 990 nM and 2000 nM, respectively.

`COc1cc2ncnc(C3CCN(C(=O)Nc4ccc(C)cc4)CC3)c2cc1OC` [Example 48, 4-(6,7-Dimethoxy-quinazolin-4-yl)-piperidine-1-carboxylic acid p-tolylamide]: the concentration for half-maximal inhibition (IC50) in assay [1] was found to be 1600 nM; with MV4-11 cells, 1800 nM.

Take `COc1cc2ncnc(C3CCN(C(=O)Nc4ccc(OC(F)(F)F)cc4)CC3)c2cc1OC` [Example 50, 4-(6,7-Dimethoxy-quinazolin-4-yl)-piperidine-1-carboxylic acid (4-trifluoromethoxy-phenyl)-amide]: the IC50 in assay [1] was 83 nM; in the assay with MV4-11 cells, 131 nM.

Turning to `COc1cc2ncnc(C3CCN(C(=O)Nc4ccc(N5CCCCCC5)cc4)CC3)c2cc1OC` [Example 70, 4-(6,7-Dimethoxy-quinazolin-4-yl)-piperidine-1-carboxylic acid (4-azepan-1-yl-phenyl)-amide], the IC50 in assay [1] was found to be 27 nM; in the assay with MV4-11 cells, 8 nM.

Regarding `COc1cc2ncnc(C3CCN(C(=O)Nc4ccc(N5CCCCC5)c(Cl)c4)CC3)c2cc1OC` [Example 71, 4-(6,7-Dimethoxy-quinazolin-4-yl)-piperidine-1-carboxylic acid (3-chloro-4-piperidin-1-yl-phenyl)-amide], the IC50 came out at 139 nM in assay [1] and 110 nM with MV4-11 cells.

`CN1CCN(CCCOc2ccc3c(C4CCN(C(=S)Nc5ccc(N6CCOCC6)nc5)CC4)ncnc3c2)CC1` [Example 106, 4-{7-[3-(4-Methyl-piperazin-1-yl)-propoxy]-quinazolin-4-yl}-piperidine-1-carbothioic acid (6-morpholin-4-yl-pyridin-3-yl)-amide]: the IC50 in assay [1] is 2200 nM; in the assay on MV4-11 cells, 1000 nM.

As to `O=C(Nc1ccc(N2CCOCC2)nc1)N1CCC(c2ncnc3cc(OCCCn4cnnc4)ccc23)CC1` [Example 110, 4-[7-(3-[1,2,4]Triazol-4-yl-propoxy)-quinazolin-4-yl]-piperidine-1-carboxylic acid (6-morpholin-4-yl-pyridin-3-yl)-amide], the IC50 in assay [1] was found to be 28 nM; with MV4-11 cells, 893 nM.

For the molecule `CN(C)c1c(NCCCOc2ccc3c(C4CCN(C(=O)Nc5ccc(N6CCCC6)nc5)CC4)ncnc3c2)c(=O)c1=O` [Example 111, 4-{7-[3-(2-Dimethylamino-3,4-dioxo-cyclobut-1-enylamino)-propoxy]-quinazolin-4-yl}-piperidine-1-carboxylic acid (6-pyrrolidin-1-yl-pyridin-3-yl)-amide], the IC50 worked out at 19 nM in assay [1] and 625 nM in the assay with MV4-11 cells.

On to `O=C(NCCCOc1ccc2c(C3CCN(C(=O)Nc4ccc(N5CCOCC5)nc4)CC3)ncnc2c1)N1CCOCC1` [Example 113, Morpholine-4-carboxylic acid (3-{4-[1-(6-morpholin-4-yl-pyridin-3-ylcarbamoyl)-piperidin-4-yl]-quinazolin-7-yloxy}-propyl)-amide], for which the IC50 worked out at 132 nM in assay [1] and 360 nM with MV4-11 cells.

In the case of `O=C(Nc1ccc(N2CCCC2)nc1)N1CCC(c2ncnc3cc(OCCCn4cnnc4)ccc23)CC1` [Example 114, 4-[7-(3-[1,2,4]Triazol-4-yl-propoxy)-quinazolin-4-yl]-piperidine-1-carboxylic acid (6-pyrrolidin-1-yl-pyridin-3-yl)-amide], the IC50 in assay [1] was determined as 9 nM; in the assay on MV4-11 cells it was 178 nM.
